Experimental findings from US7179825B2, “Retinoic acid mimetic anilides” (Janssen Pharmaceutica N.V., priority 1997, dated 2007) are described below.

Assay [1] relates to metabolism of retinoic acid in human breast cancer cells. Nature of the assay: Inhibition of retinoic acid (RA) metabolism (Example C.1). Format: cell-based. The note with it: MCF-7 human breast cancer cells, 3H-RA as substrate, concentration needed to reduce the amount of metabolites to 50% of the control. The procedure, abridged: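 Test compound (in 1% DMSO) added at several concentrations to MCF-7 cell suspensions fed ³H-RA, after RA induction of metabolism one day earlier. Scintillation counting of the separated polar metabolite fraction; IC50 = concentration giving 50% of control metabolite level.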

Assay [2] concerns Ovariectomized rats. Nature of the assay: Vaginal keratinization test on ovariectomized rats (Example C.2). The following applies: estradiol undecylate induced keratinization, per os once daily on days 1-3, active dose = 50% of rats show complete suppression; for minimal effective dose: Rattus norvegicus, po, read-out: LAD (lowest active dose). Format: in vivo. The method, boiled down:
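Value is the lowest oral dose (mg/kg) at which half of tested rats show complete suppression of estradiol undecylate-induced vaginal keratinization by histology. Ovariectomized rats received 100 μg/100 g estradiol undecylate s.c., then compound or PEG 200 vehicle p.o. daily for three days; sacrifice one day later.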

A value given as a limit tells only on which side of the number the result lay.

What is called IC50 is the concentration that gives 50% inhibition. Consider `CC(C)C(c1ccc(NC(=O)Cc2cccc3ccccc23)cc1)n1ccnc1` (racemic) [Compound 246], for which, in assay [1], the concentration for half-maximal inhibition (IC50) was determined as 2.1 nM. In assay [2], the “LAD (lowest active dose)” value was 10.00 mg/kg.
Turning to `CC(C)C(c1ccc(NC(=O)Cc2ccccn2)cc1)n1ccnc1` (racemic) [Compound 247], the IC50 in assay [1] worked out at 35.5 nM. Besides, the “LAD (lowest active dose)” value in assay [2] was determined as 10.00 mg/kg.
For `CC(C)C(c1ccc(NC(=O)c2ccc3c(c2)C(C)(C)CCC3(C)C)cc1)n1ccnc1` (racemic) [Compound 252], in that order: 2.59 nM and >10.00 mg/kg.
`CC(C)C(c1ccc(NC(=O)C2=Cc3ccccc3OC2)cc1)n1ccnc1` (racemic) [Compound 254]: the IC50 in assay [1] was determined as 6.47 nM. The “LAD (lowest active dose)” value in assay [2] is reported as >5.00 mg/kg.
As for `CC(C)C(c1ccc(NC(=O)Cc2ccc3c(c2)OCCO3)cc1)n1ccnc1` (racemic) [Compound 255], the IC50 in assay [1] is 6.24 nM. In addition, the “LAD (lowest active dose)” value in assay [2] is given as 5.00 mg/kg.
With `CC(C)C(c1ccc(NC(=O)Cc2ccc3c(c2)C(C)(C)CCC3(C)C)cc1)n1ccnc1` (racemic) [Compound 256], the IC50 in assay [1] amounted to 3.2 nM. In addition, the “LAD (lowest active dose)” value in assay [2] is given as >2.50 mg/kg.
For `CC(C)C(c1ccc(NC(=O)CNC(=O)c2ccccc2)cc1)n1ccnc1` (racemic) [Compound 261], in that order: 2.22 nM and >10.00 mg/kg.
As for `CC(C)C(c1ccc(NC(=O)CNC(=O)OCc2ccccc2)cc1)n1ccnc1` (racemic) [Compound 262], in assay [1], the IC50 was found to be 7.48 nM. Further, in assay [2], the “LAD (lowest active dose)” value is listed as 20.00 mg/kg.
With `CC(C)C(c1ccc(NC(=O)N(C)Cc2ccccc2)cc1)n1ccnc1` (racemic) [Compound 263], the IC50 in assay [1] is 4.66 nM. The “LAD (lowest active dose)” value in assay [2] is listed as >10.00 mg/kg.
As to `CC(C)C(c1ccc(NC(=O)CC2(CC(=O)O)CCCC2)cc1)n1ccnc1` (racemic) [Compound 264], in assay [1], the IC50 came out at 2.71 nM. For the same molecule, in assay [2], the “LAD (lowest active dose)” value is on record as >10.00 mg/kg.
Take `CC(C)C(c1ccc(NC(N)=O)cc1)n1ccnc1` (racemic) [Compound 266, (±)-4-[1-(1H-imidazol-1-yl)-2-methylpropyl]phenylurea]: the IC50 in assay [1] (MCF7) is 31.1 nM. Also, in assay [2], the minimal effective dose was > 10 mg/kg.
For `CC(C)NC(=O)Nc1ccc(C(C(C)C)n2ccnc2)cc1` (racemic) [Compound 268], the IC50 in assay [1] came to 7.79 nM. Further, in assay [2], the “LAD (lowest active dose)” value is recorded as >10.00 mg/kg.
For `CC(C)C(c1ccc(NC(=O)Nc2cccnc2)cc1)n1ccnc1` (racemic) [Compound 270], in that order: 5.61 nM and >10.00 mg/kg.
As to `CC(C)C(c1ccc(NC(=O)Nc2cnccn2)cc1)n1ccnc1` (racemic) [Compound 271], in assay [1], the IC50 came to 2.45 nM. Further, the “LAD (lowest active dose)” value in assay [2] came to 10.00 mg/kg.
For `CC(C)C(c1ccc(NC(=O)Nc2cccc3ccccc23)cc1)n1ccnc1` (racemic) [Compound 272], the concentration for half-maximal inhibition (IC50) in assay [1] was 4.81 nM. Moreover, the “LAD (lowest active dose)” value in assay [2] is reported as >10.00 mg/kg.
Take `CC(C)C(c1ccc(NC(=O)Nc2ccccn2)cc1)n1ccnc1` (racemic) [Compound 274, (±)-N-(2-pyridinyl)-N′-[4-[1-(1H-imidazol-1-yl)-2-methylpropyl]phenyl]urea]: in assay [1] (MCF7), the IC50 came to 6.64 nM. In addition, the minimal effective dose in assay [2] was > 10 mg/kg.
In the case of `CC(C)C(c1ccc(NC(=O)Nc2ccncc2)cc1)n1ccnc1` (racemic) [Compound 275], the IC50 in assay [1] worked out at 4.28 nM. The “LAD (lowest active dose)” value in assay [2] was >10.00 mg/kg.
Take `CC(C)C(c1ccc(NC(=O)Nc2ccc3c(c2)OCCO3)cc1)n1ccnc1` (racemic) [Compound 276]: the IC50 in assay [1] was 16 nM. The “LAD (lowest active dose)” value in assay [2] is listed as >10.00 mg/kg.
Consider `CC(C)C(c1ccc(NC(=O)Nc2nc3ccccc3n2C)cc1)n1ccnc1` (racemic) [Compound 277], for which the IC50 in assay [1] came to 1.17 nM. Besides, the “LAD (lowest active dose)” value in assay [2] is reported as >5.00 mg/kg.
Turning to `O=C(Cc1ccc(Cl)cc1)Nc1ccc(C(c2ccc(Cl)cc2)n2ccnc2)cc1` (racemic) [Compound 356], the IC50 in assay [1] is > 100 nM. Further, the “LAD (lowest active dose)” value in assay [2] is reported as >10.00 mg/kg.
Take `CC(c1ccc(NC(=O)Cc2ccc(Cl)cc2)cc1)n1ccnc1` (racemic) [Compound 358]: the IC50 in assay [1] is > 100 nM. For the same molecule, the “LAD (lowest active dose)” value in assay [2] was >10.00 mg/kg.
The matching figures for `CC(C)CC(c1ccc(NC(=O)Cc2ccc(Cl)cc2)cc1)n1ccnc1` (racemic) [Compound 359]: 6.25 nM and >10.00 mg/kg.
For the molecule `CC(C)(C)CC(c1ccc(NC(=O)Cc2ccc(Cl)cc2)cc1)n1ccnc1` (racemic) [Compound 360], the IC50 in assay [1] was 1.08 nM. Also, the “LAD (lowest active dose)” value in assay [2] came out at 2.50 mg/kg.
Take `CCC(C)C(c1ccc(NC(=O)Cc2ccc(Cl)cc2)cc1)n1ccnc1` (racemic) [Compound 364]: the IC50 in assay [1] is 1.41 nM. Further, the “LAD (lowest active dose)” value in assay [2] is recorded as 2.50 mg/kg.
With `CCCC(CCC)C(c1ccc(NC(=O)Cc2ccc(OC)c(OC)c2)cc1)n1ccnc1` (racemic) [Compound 378], the IC50 in assay [1] was 1.74 nM. Further, in assay [2], the “LAD (lowest active dose)” value is reported as 2.50 mg/kg.
As for `COCC(C)C(c1ccc(NC(=O)Cc2ccc(OC)c(OC)c2)cc1)n1ccnc1` (racemic) [Compound 404, (±)-(A)-3,4-dimethoxy-N-[4-[1-(1H-imidazol-1-yl)-3-methoxy-2-methylpropyl]phenyl]benzeneacetamide], the IC50 in assay [1] came to 1.35 nM. The “LAD (lowest active dose)” value in assay [2] was 5.00 mg/kg.
In the case of `C/C(=C\c1ccccc1)C(=O)N(C)c1ccc(C(C(C)C)n2ccnc2)cc1` (racemic) [Compound 421], the concentration for half-maximal inhibition (IC50) in assay [1] is > 100 nM. Besides, the “LAD (lowest active dose)” value in assay [2] is >10.00 mg/kg.
As to `CCN(C(=O)/C(C)=C/c1ccccc1)c1ccc(C(C(C)C)n2ccnc2)cc1` (racemic) [Compound 422], the IC50 in assay [1] was > 10 nM. The “LAD (lowest active dose)” value in assay [2] is on record as >10.00 mg/kg.
As to `O=C(Nc1ccc(C(c2ccccc2)n2ccnc2)cc1)c1cnccn1` (racemic) [Compound 424], the IC50 in assay [1] is > 100 nM. Besides, the “LAD (lowest active dose)” value in assay [2] is >10.00 mg/kg.
Turning to `CCC(CC)C(c1ccc(N(C)C(=O)Cc2ccc(OC)c(OC)c2)cc1)n1ccnc1` (racemic) [Compound 427], in assay [1], the IC50 was found to be 8.34 nM. The “LAD (lowest active dose)” value in assay [2] was determined as 2.50 mg/kg.
For `CN(C)CC(c1ccc(NC(=O)Oc2ccccc2)cc1)n1ccnc1` (racemic) [Compound 435], in that order: 2.8 nM and >2.50 mg/kg.
The matching figures for `CC(=Cc1ccccc1)C(=O)Nc1ccc(C(c2ccccc2)n2ccnc2)cc1` (racemic) [Compound 445]: 192 nM and >20.00 mg/kg.
As for `C/C(=C\c1ccccc1)C(=O)Nc1ccc(C(C(C)C)n2ccnc2)cc1` (racemic) [Compound 455], the IC50 in assay [1] was found to be 2.87 nM. Moreover, in assay [2], the “LAD (lowest active dose)” value came out at 2.50 mg/kg.
For the molecule `Cc1ccccc1C(=Cc1ccccc1)C(=O)Nc1ccc(C(C(C)C)n2ccnc2)cc1` (racemic) [Compound 456], the IC50 in assay [1] was found to be 140 nM. In addition, the “LAD (lowest active dose)” value in assay [2] is listed as >20.00 mg/kg.
For `CCC(=Cc1ccccc1)C(=O)Nc1ccc(C(C(C)C)n2ccnc2)cc1` (racemic) [Compound 457], the IC50 in assay [1] worked out at 25 nM. Moreover, in assay [2], the “LAD (lowest active dose)” value is >20.00 mg/kg.
With `CCC(c1ccc(NC(=O)/C(C)=C/c2ccccc2)cc1)n1ccnc1` (racemic) [Compound 460], in assay [1], the IC50 amounted to 36.3 nM. Also, the “LAD (lowest active dose)” value in assay [2] is listed as >20.00 mg/kg.
As to `CC(C)C(c1ccc(NC(=O)C(F)=Cc2ccccc2)cc1)n1ccnc1` (racemic) [Compound 461], the concentration for half-maximal inhibition (IC50) in assay [1] turned out to be 16.9 nM. Further, the “LAD (lowest active dose)” value in assay [2] is given as 10.00 mg/kg.
`CCCCC(c1ccc(NC(=O)/C(C)=C/c2ccccc2)cc1)n1ccnc1` (racemic) [Compound 462]: the 50% inhibitory concentration (IC50) in assay [1] was > 1000 nM. The “LAD (lowest active dose)” value in assay [2] is reported as 20.00 mg/kg.
Consider `C/C(=C\c1ccccc1)C(=O)Nc1ccc(C(C2CCCCC2)n2ccnc2)cc1` (racemic) [Compound 463], for which the IC50 in assay [1] was 24.5 nM. In assay [2], the “LAD (lowest active dose)” value came out at 20.00 mg/kg.
For the molecule `CCC/C(=C\c1ccccc1)C(=O)Nc1ccc(C(C(C)C)n2ccnc2)cc1` (racemic) [Compound 464], the IC50 in assay [1] worked out at 149 nM. Also, the “LAD (lowest active dose)” value in assay [2] is recorded as >20.00 mg/kg.
As for `CCCC/C(=C\c1ccccc1)C(=O)Nc1ccc(C(C(C)C)n2ccnc2)cc1` (racemic) [Compound 465], in assay [1], the IC50 was determined as 50.4 nM. The “LAD (lowest active dose)” value in assay [2] is reported as >20.00 mg/kg.
For the molecule `C/C(=C\c1ccccc1)C(=O)Nc1ccc(C(C)n2ccnc2)cc1` (racemic) [Compound 466], the IC50 in assay [1] was > 1000 nM. Moreover, the “LAD (lowest active dose)” value in assay [2] is on record as >20.00 mg/kg.
As for `CCCC(c1ccc(NC(=O)/C(C)=C/c2ccccc2)cc1)n1ccnc1` (racemic) [Compound 467], the IC50 in assay [1] is 2.58 nM. For the same molecule, the “LAD (lowest active dose)” value in assay [2] is given as >20.00 mg/kg.
For the molecule `O=C(Nc1ccc(C(C2CCCCC2)n2ccnc2)cc1)/C(=C/c1ccccc1)c1ccccc1` (racemic) [Compound 468], the IC50 in assay [1] was > 100 nM. Besides, in assay [2], the “LAD (lowest active dose)” value amounted to 10.00 mg/kg.
For `C/C(=C\c1ccccc1)C(=O)Nc1ccc(C(C2CC2)n2ccnc2)cc1` (racemic) [Compound 469], in that order: > 100 nM and >10.00 mg/kg.
